Test system: SCPMA
Test: In-water applied weed control, transplanted paddy rice, greenhouse (Example II)
Format: in vivo
Experimental: Evaluation of in-Water Applied Herbicidal Mixtures for Weed Control in Transplanted Paddy Rice
Weed seeds or nutlets of the desired test plant species were planted in puddled soil (mud) prepared by mixing a shredded, non-sterilized mineral soil (50.5 percent silt, 25.5 percent clay, and 24 percent sand, with a pH of about 7.6 and an organic matter content of about 2.9 percent) and water at a 1:1 volumetric ratio. The prepared mud was dispensed in 365 mL aliquots into 16-ounce (oz.) non-perforated plastic pots with a surface area of 86.59 square centimeters (cm^2) leaving a headspace of 3 centimeters (cm) in each pot. Mud was allowed to dry overnight prior to planting or transplanting. Rice seeds were planted in Sun Gro MetroMix® 306 planting mixture, which typically has a pH of 6.0 to 6.8 and an organic matter content of about 30 percent, in plastic plug trays. Seedlings at the second or third leaf stage of growth were transplanted into 840 mL of mud contained in 32-oz. non-perforated plastic pots with a surface area of 86.59 cm^2 4 days prior to herbicide application. The paddy was created by filling the headspace of the pots with 2.5 to 3 cm of water. When required to ensure good germination and healthy plants, a fungicide treatment and/or other chemical or physical treatment was applied. The plants were grown for 4-22 days in a greenhouse with an approximate 14 h photoperiod which was maintained at about 29′C during the day and 26° C. during the night. Nutrients were added as Osmocote® (19:6:12, N:P:K+ minor nutrients) at 2 g per 16-oz. pot and 4 g per 32-oz. pot. Water was added on a regular basis to maintain the paddy flood, and supplemental lighting was provided with overhead metal halide 1000-Watt lamps as necessary. The plants were employed for testing when they reached the first through fourth true leaf stage.
Treatments consisted of the acid or esters of 4-amino-3-chloro-5-fluoro-6-(4-chloro-2-fluoro-3-methoxy-phenyl)pyridine-2-carboxylic acid (compound A) each formulated as an SC (suspension concentrate) and various herbicidal components alone and in combination. Forms of compound A were applied on an acid equivalent basis.
Other herbicidal components were applied on an active ingredient basis and included 4-hydroxyphenyl pyruvate dioxygenase (HPPD)-inhibiting herbicides mesotrione formulated as Callisto®, sulcotrione formulated as Mikado®, pyrazolynate formulated as Sunbird® 10% GR, and benzobicyclon formulated as Benzobicyclon 3.5% or technical material.
Treatment requirements for each compound or herbicidal component were calculated based upon the rates being tested, the concentration of active ingredient or acid equivalent in the formulation, an application volume of 2 mL per component per pot, and an application area of 86.59 cm^2 per pot.
For formulated compounds, a measured amount was placed in an individual 100 or 200 mL glass vial and was dissolved in a volume of 1.25% (v/v) Agri-Dex® crop oil concentrate to obtain application solutions.
For technical grade compounds, a weighed amount was placed in an individual 100 to 200 mL glass vial and was dissolved in a volume of acetone to obtain concentrated stock solutions. […] The concentrated stock solutions obtained were diluted with an equivalent volume of an aqueous mixture containing 2.5% (v/v) crop oil concentrate so that the final application solutions contained 1.25% (v/v) crop oil concentrate.
Applications were made by injecting with a pipetter appropriate amounts of the application solutions, individually and sequentially, into the aqueous layer of the paddy. Control plants were treated in the same manner with the solvent blank. Applications were made so that all treated plant material received the same concentrations of acetone and crop oil concentrate.
The treated plants and control plants were placed in a greenhouse as described above and water was added as needed to maintain a paddy flood. […]

Measured: Visual Weed Control (%) - 21 DAA SCPMA Obs

COc1c(Cl)ccc(-c2nc(C(=O)OCc3ccccc3)c(Cl)c(N)c2F)c1F [Compound A Benzyl Ester, benzyl ester of 4-amino-3-chloro-5-fluoro-6-(4-chloro-2-fluoro-3-methoxy-phenyl)pyridine-2-carboxylic acid]
0%: 4.38 gae/ha | 8 gae/ha | 8.75 gae/ha | 16 gae/ha | 17.5 gae/ha | 32 gae/ha | 48 gae/ha | 96 gae/ha

COc1c(Cl)ccc(-c2nc(C(=O)O)c(Cl)c(N)c2F)c1F [Compound A Acid, 4-amino-3-chloro-6-(4-chloro-2-fluoro-3-methoxyphenyl)-5-fluoropyridine-2-carboxylic acid]
0%: 8.75 gae/ha | 17.5 gae/ha | 35 gae/ha

— US8841233B2, “Herbicidal compositions comprising 4-amino-3-chloro-5-fluoro-6-(4-chloro-2-fluoro-3-methoxyphenyl) pyridine-2-carboxylic acid or a derivative thereof and 4-hydroxyphenyl-pyruvate dioxygenase (HPPD) inhibitors” (Dow Agrosciences LLC, priority 2012, dated 2014)
